Experimental data from ChEMBL document CHEMBL1201862, “PubChem BioAssay data set” (2004).
Activity calls are given as the source filed them.

How the values were obtained:
[1] = Jurkat T cell cytotoxicity, dose response, cytotoxicity control for P. falciparum gametocyte viability project, luminescence (AID 1117277); type: functional, cell-based;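 further: potency reflects loss of cellular ATP meaning fewer viable cells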
[2] = P. falciparum late gametocyte killing, dose response, luminescence (AID 1117278); type: functional, cell-based;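 further: gametocytes exposed to compound for 24 hours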
Prothrombin = Prothrombin (Homo sapiens, UniProt P00734); assay: Thrombin 1536 HTS Dose Response Confirmation. [Related pubchem assays: 1046 (Thrombin 1536 HTS; hits were confirmed in this assay)]; type: functional
[3] = YAP1 pathway inhibition via CTGF transcript levels, dose response, cell-based, DLD1 colon cancer, RT-qPCR, cherry-pick (AID 1053122); type: functional; details: Cancer cell lines
INS1 = assay: beta cell apoptosis inhibitors, cytokine rescue, dose response, luminescence, retest (AID 449756); type: functional, cell-based;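 further: cell death triggered by IL-1 beta plus TNF-alpha plus IFN-gamma mixture; protective hits raise ATP signal compared with cytokine alone wells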
[4] = molecular target: COUP transcription factor 2 (Homo sapiens, UniProt P24468); assay: Luminescence-based cell-based high throughput dose response assay to identify inhibitors of COUP-TFII (NR2F2).; type: functional;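 further: HEK293 cells transiently cotransfected with COUP-TFII expression vector and reporter; luciferase reporter luminescence driven by COUP-TFII from the pX2-168 reporter plasmid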
[5] = C. albicans growth with fluconazole, confirmation, fluorescence, retest (AID 2467); type: functional, cell-based
[6] = NIH-3T3 fibroblast cytotoxicity, dose response, cytotoxicity control, cell-based, fluorescence, Alamar Blue, secondary assay (AID 2327); type: functional;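 further: NIH-3T3 mouse fibroblasts cultured with fluconazole at 8 µg/mL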
[7] = cytotoxicity in HEK-293T cells, dose response, cytotoxicity control for BCR NF-kB inhibitor project, luminescence, B-cell screen hits (AID 489021); type: functional, cell-based;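 further: HEK-293T cells carrying an NF-kB luciferase reporter; cells exposed to compound for about 14 hours before viability readout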
[8] = Glucagon-like peptide 1 release potency, NCI-H716 cell line, dose-response, half-maximal inhibitory concentration (AID 1117344); type: functional, cell-based
Cytochrome P450 2D6 = Cytochrome P450 2D6 (Homo sapiens, UniProt P10635);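 further: CYP2D6 member of a cytochrome P450 panel assay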
[9] = half-maximal inhibitory concentration for glucagon-like peptide-1 release, STC-1 cell line, dose-response (AID 1117345); type: functional, cell-based
Cytochrome P450 1A2 = molecular target: T1, Cytochrome P450 1A2 (Homo sapiens, UniProt P05177);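 further: PubChem cytochrome P450 panel assay, CYP1A2 panel member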
T1 sequence (P05177 whole entry): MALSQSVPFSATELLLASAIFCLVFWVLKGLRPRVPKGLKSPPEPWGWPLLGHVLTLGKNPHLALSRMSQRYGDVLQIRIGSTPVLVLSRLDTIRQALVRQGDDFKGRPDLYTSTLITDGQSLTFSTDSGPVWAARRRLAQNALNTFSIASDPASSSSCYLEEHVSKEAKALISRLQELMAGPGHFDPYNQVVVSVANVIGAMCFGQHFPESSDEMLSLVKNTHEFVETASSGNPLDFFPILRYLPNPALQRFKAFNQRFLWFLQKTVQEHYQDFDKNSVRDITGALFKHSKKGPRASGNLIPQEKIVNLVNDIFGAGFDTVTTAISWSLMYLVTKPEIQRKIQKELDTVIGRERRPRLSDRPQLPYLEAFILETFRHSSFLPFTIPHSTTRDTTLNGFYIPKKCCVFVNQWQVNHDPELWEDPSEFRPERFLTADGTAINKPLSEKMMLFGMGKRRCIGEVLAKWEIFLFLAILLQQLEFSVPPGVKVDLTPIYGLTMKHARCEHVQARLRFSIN

[10] = MC4R antagonists, dose response, counter-screen for LGR2 antagonist project, cell-based, plate reader, cherry pick (AID 743444); type: functional;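 further: transfected HEK 293 cells stimulated with alpha-MSH peptide; potency of inhibitors of the alpha-MSH evoked signal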
[11] = HepG2 cell cytotoxicity, dose response, cytotoxicity control, plate reader, cherry-pick, antagonist series (AID 743416); type: functional, cell-based
[12] = Luminescence Cell-Based Dose Retest to Confirm Inhibitors of Cancer Stem Cells. [Related pubchem assays (depositor defined):AID2717, AID2721]; type: functional; details: Homo sapiens
[13] = HEK293 cell cytotoxicity, dose response, cytotoxicity control, plate reader, cherry-picked samples (AID 743446); type: functional, cell-based
Paired box protein Pax-8 = Paired box protein Pax-8 (Homo sapiens, UniProt Q06710); assay: inhibitors of PAX8-driven TPO luciferase reporter, dose response, RMG-I cells, cherry-pick (AID 687027); type: functional, cell-based;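 further: luciferase reporter driven by Pax8 target thyroperoxidase promoter measured by SteadyGlo luminescence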
[14] = LGR2 antagonists, dose response, cell-based, HEK293, CRE-luciferase reporter, cherry pick, set 2 (AID 743343); type: functional;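 further: transfected cells were stimulated with diluted bursicon conditioned medium after compound addition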
[15] = Shn3 3'UTR reporter inhibitors, dose response, cell-based, Clone20 osteoblasts, firefly luciferase, cherry-picked (AID 624132); type: functional;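 further: firefly luciferase luminescence from reporter carrying the Shn3 3'UTR in osteoblasts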
[16] = control 3'UTR Renilla luciferase suppression, dose response, counter-screen for Shn3 inhibitor project, cell-based, Clone20-Shn3RL, cherry-picked (AID 624133); type: functional
[17] = HepG2 cell cytotoxicity, dose response, cytotoxicity control for Shn3 inhibitor project, CellTiter-Glo, cherry-picked (AID 624134); type: functional, cell-based
A-375 = assay: A375 melanoma cell viability reduction, dose response, counter-screen for MITF modulator project, cherry-pick samples, set 2 (AID 540335); type: functional, cell-based; details: Homo sapiens
[18] = molecular target: T2, Microphthalmia-associated transcription factor (Homo sapiens, UniProt O75030); assay: TRPM1 promoter luciferase signal decrease, dose response, MITF inhibitor project, cell-based, SK-MEL-5, cherry-picked, set 3 (AID 493073); type: functional
T2 sequence (O75030 whole entry): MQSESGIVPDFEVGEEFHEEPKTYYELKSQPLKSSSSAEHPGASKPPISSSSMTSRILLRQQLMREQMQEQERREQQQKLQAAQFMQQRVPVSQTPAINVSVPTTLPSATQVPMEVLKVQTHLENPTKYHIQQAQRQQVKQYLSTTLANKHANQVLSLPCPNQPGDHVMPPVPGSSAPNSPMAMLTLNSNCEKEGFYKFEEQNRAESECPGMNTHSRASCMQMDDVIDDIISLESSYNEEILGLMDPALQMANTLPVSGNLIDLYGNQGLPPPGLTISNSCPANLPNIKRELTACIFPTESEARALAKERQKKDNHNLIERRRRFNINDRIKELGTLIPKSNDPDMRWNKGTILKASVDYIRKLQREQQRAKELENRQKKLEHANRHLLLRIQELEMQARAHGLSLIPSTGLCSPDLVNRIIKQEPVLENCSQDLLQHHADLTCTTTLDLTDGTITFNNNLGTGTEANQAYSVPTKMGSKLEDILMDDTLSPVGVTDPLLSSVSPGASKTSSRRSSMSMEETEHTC

[19] = A549 cell cytotoxicity, dose response, cytotoxicity control, plate reader, cherry-pick, antagonist series (AID 743412); type: functional, cell-based

Sequence of Paired box protein Pax-8 (Q06710 whole entry): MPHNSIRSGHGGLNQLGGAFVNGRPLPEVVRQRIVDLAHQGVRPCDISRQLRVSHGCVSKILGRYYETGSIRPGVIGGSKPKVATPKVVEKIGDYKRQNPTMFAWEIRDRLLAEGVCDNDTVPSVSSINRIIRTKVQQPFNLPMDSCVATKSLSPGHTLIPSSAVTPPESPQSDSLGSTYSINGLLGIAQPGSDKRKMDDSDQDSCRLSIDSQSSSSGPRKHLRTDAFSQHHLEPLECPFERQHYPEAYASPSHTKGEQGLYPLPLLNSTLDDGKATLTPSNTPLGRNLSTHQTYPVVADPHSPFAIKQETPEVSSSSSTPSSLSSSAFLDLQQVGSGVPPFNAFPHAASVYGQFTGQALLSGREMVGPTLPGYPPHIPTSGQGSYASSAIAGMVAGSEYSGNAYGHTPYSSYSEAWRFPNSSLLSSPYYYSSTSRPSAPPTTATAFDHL
Sequence of Cytochrome P450 2D6 (P10635 whole entry): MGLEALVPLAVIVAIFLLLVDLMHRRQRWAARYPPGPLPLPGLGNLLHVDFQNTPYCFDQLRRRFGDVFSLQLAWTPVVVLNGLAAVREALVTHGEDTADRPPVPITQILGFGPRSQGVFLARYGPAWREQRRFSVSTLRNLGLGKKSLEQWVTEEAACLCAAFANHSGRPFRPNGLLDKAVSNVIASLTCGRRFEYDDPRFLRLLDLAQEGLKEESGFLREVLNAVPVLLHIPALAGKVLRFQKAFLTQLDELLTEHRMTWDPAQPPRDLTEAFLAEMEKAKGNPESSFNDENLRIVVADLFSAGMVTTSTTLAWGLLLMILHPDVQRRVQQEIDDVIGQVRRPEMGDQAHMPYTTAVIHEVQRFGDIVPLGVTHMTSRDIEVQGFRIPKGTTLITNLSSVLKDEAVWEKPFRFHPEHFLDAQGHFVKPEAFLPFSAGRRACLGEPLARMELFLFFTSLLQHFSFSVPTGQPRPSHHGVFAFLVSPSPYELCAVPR
Sequence of COUP transcription factor 2 (P24468 whole entry): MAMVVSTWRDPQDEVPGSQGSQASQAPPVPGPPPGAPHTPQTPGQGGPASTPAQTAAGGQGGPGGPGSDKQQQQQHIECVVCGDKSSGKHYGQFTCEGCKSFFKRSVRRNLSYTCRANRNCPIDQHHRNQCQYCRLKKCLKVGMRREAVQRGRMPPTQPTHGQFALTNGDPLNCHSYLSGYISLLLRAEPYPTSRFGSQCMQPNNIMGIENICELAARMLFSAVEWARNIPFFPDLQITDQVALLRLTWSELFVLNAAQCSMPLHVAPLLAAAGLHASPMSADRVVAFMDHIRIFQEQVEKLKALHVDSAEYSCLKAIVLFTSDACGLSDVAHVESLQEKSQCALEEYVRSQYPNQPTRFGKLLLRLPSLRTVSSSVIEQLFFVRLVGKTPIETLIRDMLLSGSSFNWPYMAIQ

SMILES: COC(=O)c1cc(NC(=O)c2ccc(-c3ccccc3)cc2)ccc1Cl
- IC50 [1]: > 83.3 µM (inactive)
- IC50 [2]: > 109 µM (inactive)

SMILES: C=CCn1cc(C(=O)NCc2ccc3c(c2)OCO3)c(=O)c2cc(S(=O)(=O)N(CC)CC)ccc21
- IC50 (Prothrombin): 19.2 µM (active)

SMILES: COc1ccc(NC(=O)N2CCCCN3[C@@H](CO)[C@H](c4ccc(-c5ccccc5F)cc4)[C@@H]3C2)cc1
- AC50 [3]: 2.72 µM (active)

SMILES: Cc1ccc(S(=O)(=O)NCC(=O)N(CC(=O)NC2CCCC2)c2ccc3c(c2)OCCO3)cc1
- IC50 [1]: > 83.3 µM (inactive)
- IC50 [2]: > 109 µM (inactive)

SMILES: Cc1ccc(-c2c[n+](-c3ccccc3)c3n2CCCS3)cc1
- AC50 (INS1; Rattus norvegicus, INS1): 2.26 µM (active)
- AC50 (INS1; ins1): 1.92 µM (active)
- IC50 [4]: 17.4 µM (inactive)
- EC50 [5]: 0.709 µM (active)
- EC50 [6]: 50.9 µM (active)
- IC50 [7]: > 80 µM (inactive)

SMILES: Cc1c(NC(C)C)c(=O)n(-c2ccccc2)n1C [RAMIFENAZONE]
- IC50 [8]: > 40 µM (inactive)
- AC50 (Cytochrome P450 2D6): 12.6 µM (inconclusive)
- IC50 [9]: > 40 µM (inactive)
- AC50 (Cytochrome P450 1A2): 0.0398 µM (inconclusive)

SMILES: Cc1ccc(S(=O)(=O)N2CCCCC2)cc1NC(=O)Cn1ncc(Cl)c(Cl)c1=O
- AC50 [10]: 17.5 µM (active)
- AC50 [11]: 10.4 µM (active)
- AC50 [12]: 2.6 µM (active)
- AC50 [13]: 7.53 µM (active)
- AC50 (Paired box protein Pax-8): 4.3 µM (active)
- AC50 [14]: 17.9 µM (active)
- AC50 [15]: 4.32 µM (active)
- AC50 [16]: 8.36 µM (active)
- AC50 [17]: 23.5 µM (active)
- AC50 (A-375): 23.7 µM (active)
- AC50 [18]: 6.21 µM (active)
- AC50 [19]: 9.07 µM (active)

SMILES: O=C(O)Cc1ccccc1C(=O)O [2-CARBOXYBENZENEACETIC ACID]
- IC50 (Prothrombin): > 50 µM (not active)
